Starred links: 1 amine or outer side, 2 acyl side, 3 side chain; linkers in the order of their positions; H or OH if unused. Non-standard residues stand in square brackets, D forms with d. Residues, ends and D or L forms follow the SMILES beside them. Pentanoyl(2-O,4-OH,5-Cl) = O=C(O)C(O)CC(O)CCl; dLac(3-vinyl) = C=CC[C@@H](O)C(=O)O; NMeI = CC[C@H](C)[C@H](NC)C(=O)O; X1 = C=CC[C@H](O[*:1])C(=O)[*:2]; Hica(2S) = CC(C)C[C@H](O)C(=O)O; dHica = CC(C)C[C@@H](O)C(=O)O; NMeV = CN[C@H](C(=O)O)C(C)C; NMeA = CN[C@@H](C)C(=O)O; βAla = NCCC(=O)O
Tests used:
[1] = system: Hep 3B2; experiment: Induction of erythropoietin gene expression in human Hep3B cells over expressing human EPO assessed as maximal transcription induction ratio at 20 uM by luciferase reporter gene assay; type: functional
[2] = system: Hep 3B2; experiment: Induction of erythropoietin secretion in human Hep3B cells expressing human EPO at 10 uM by ELISA; type: functional
[3] = system: Hep 3B2; experiment: Induction of erythropoietin gene expression in human Hep3B cells over expressing human EPO assessed as drug level required to produce 5 fold transcription induction ratio; type: functional
[4] = system: Hep 3B2; experiment: Induction of erythropoietin gene expression in human Hep3B cells over expressing human EPO assessed as maximal transcription induction ratio at 5 uM by luciferase reporter gene assay; type: functional
[5] = system: Hep 3B2; experiment: Cytotoxicity against human Hep3B cells at =< 20 uM; type: functional, cell-based
[6] = system: Hep 3B2; experiment: Induction of erythropoietin gene expression in human Hep3B cells over expressing human EPO assessed as maximal transcription induction ratio at 1.3 uM by luciferase reporter gene assay; type: functional
[7] = system: Hep 3B2; experiment: Induction of erythropoietin gene expression in human Hep3B cells over expressing human EPO assessed as maximal transcription induction ratio at 10 uM by luciferase reporter gene assay; type: functional
[8] = system: Hep 3B2; experiment: Induction of erythropoietin gene expression in human Hep3B cells over expressing human EPO assessed as maximal transcription induction ratio at 2.1 uM by luciferase reporter gene assay; type: functional

Compound	Ratio [1]	Activity [2]	Activity [3]	Ratio [4]	Activity [5]	Ratio [6]	Ratio [7]	Ratio [8]
CC[C@H](C)[C@H](NC(=O)[C@@H]1CCCN1C(O)CC(O)CCl)C(=O)N(C)[C@H](C(=O)N(C)[C@@H](C)C(=O)NCCC(=O)O)[C@@H](C)CC (stereo partly specified)	1	–	–	–	–	–	–	–
CC[C@H](C)[C@@H]1NC(=O)[C@@H]2CCCN2C(=O)[C@H](CC(C)C)OC(=O)CCNC(=O)[C@H](C)N(C)C(=O)[C@H]([C@@H](C)CC)N(C)C1=O [homodestruxin B] (cyclo([Hica(2S)]PI[NMeI][NMeA][βAla]))	–	36 mU/ml	0.8 µM	18	Not toxic	–	–	–
C=CC[C@@H]1OC(=O)CCNC(=O)[C@H](C)N(C)C(=O)[C@H]([C@@H](C)CC)N(C)C(=O)[C@H]([C@@H](C)CC)NC(=O)[C@@H]2CCCN2C1=O [destruxin A4] (cyclo(I[NMeI][NMeA][βAla][X1]P))	–	35 mU/ml	0.9 µM	23	Not toxic	–	–	–
CC[C@H](C)[C@@H]1NC(=O)[C@@H]2CCCN2C(=O)C(CC(O)CCl)OC(=O)CCNC(=O)[C@H](C)N(C)C(=O)[C@H]([C@@H](C)CC)N(C)C1=O (stereo partly specified) (cyclo(I[NMeI][NMeA][βAla][Pentanoyl(2-O,4-OH,5-Cl)]P))	–	36 mU/ml	0.2 µM	–	Not toxic	28	–	–
CC[C@H](C)[C@@H]1NC(=O)[C@@H]2CCCN2C(=O)[C@@H](CC(C)C)OC(=O)CCNC(=O)[C@H](C)N(C)C(=O)[C@H](C(C)C)N(C)C1=O (cyclo(I[NMeV][NMeA][βAla][dHica]P))	–	35 mU/ml	2 µM	–	Not toxic	–	19	–
C=CC[C@H]1OC(=O)CCNC(=O)[C@H](C)N(C)C(=O)[C@H](C(C)C)N(C)C(=O)[C@H]([C@@H](C)CC)NC(=O)[C@@H]2CCCN2C1=O (cyclo(I[NMeV][NMeA][βAla][dLac(3-vinyl)]P))	–	37 mU/ml	0.4 µM	–	Not toxic	–	–	28

From ChEMBL document CHEMBL1141730, “Destruxin-A4 chlorohydrin, a novel destruxin from fungus OS-F68576: isolation, structure determination, and biological activity as an inducer of erythropoietin” (1998)
